Several values for one entry are separate records, joined by “and”; a condition that tells them apart may be missing. Equal entries are not always repeated. Where a SMILES comes first, the peptide text is derived from it. [ ]: non-standard residue; d: D form. Hyp = O=C(O)[C@@H]1C[C@@H](O)CN1
Test system: IL-1 beta/IL-1F2
Test: Example 9 Luminex, LPS hPBMCs: IL-1 beta/IL-1F2
Assay type: cell-based, human
Protocol: Treatment Human PBMCs were pretreated with YY-101, YDE-011 and YDE-043 or reference compound; Xiidra® at various concentration (ranging from 1 nM to 100 uM) for 2 h before stimulation. An equal volume of 0.5% DMSO was used as a vehicle control. Then, the cells were treated with LPS at 5 ug/ml. The supernatants from treated cells were harvested at 24 h and placed in a 96 well for Luminex cytokine & chemokine profiling using a Luminex 200 multiplex assay (Luminex; R&D system, USA).
The main study arm with triplicate wells per group in a 24-well plate: • 1. Blank • 2. PBMC: 0.5% DMSO • 3. PBMC+LPS (5 ug/ml) • 4. PBMC+YY-101 100 uM • 5. PBMC+YY-101 10 uM • 6. PBMC+YY-101 1 uM • 7. PBMC+YY-101 0.1 uM • 8. PBMC+YY-101 0.01 uM • 9. PBMC+LPS (5 ug/ml)+Xiidra®100 uM • 10. PBMC+LPS (5 ug/ml)+Xiidra® 10 uM • 11. PBMC+LPS (5 ug/ml)+Xiidra® 1 uM • 12. PBMC+LPS (5 ug/ml)+Xiidra®0.1 uM • 13. PBMC+LPS (5 ug/ml)+Xiidra®0.01 uM • 14. PBMC+LPS (5 ug/ml)+Xiidra®0.001 uM • 15. PBMC+LPS (5 ug/ml)+YY-101 100 uM • 16. PBMC+LPS (5 ug/ml)+YY-101 10 uM • 17. PBMC+LPS (5 ug/ml)+YY-101 1 uM • 18. PBMC+LPS (5 ug/ml)+YY-101 0.1 uM • 19. PBMC+LPS (5 ug/ml)+YY-101 0.01 uM • 20. PBMC+LPS (5 ug/ml)+YY-101 0.001 uM • 21. PBMC+LPS (5 ug/ml)+YDE-011 100 uM • 22. PBMC+LPS (5 ug/ml)+YDE-011 10 uM • 23. PBMC+LPS (5 ug/ml)+YDE-011 1 uM • 24. PBMC+LPS (5 ug/ml)+YDE-011 0.1 uM • 25. PBMC+LPS (5 ug/ml)+YDE-011 0.01 uM • 26. PBMC+LPS (5 ug/ml)+YDE-011 0.001 uM • 27. PBMC+LPS (5 ug/ml)+YDE-043 100 uM • 28. PBMC+LPS (5 ug/ml)+YDE-043 10 uM • 29. PBMC+LPS (5 ug/ml)+YDE-043 1 uM • 30. PBMC+LPS (5 ug/ml)+YDE-043 0.1 uM • 31. PBMC+LPS (5 ug/ml)+YDE-043 0.01 uM • 32. PBMC+LPS (5 ug/ml)+YDE-043 0.001 uM
Multiplex assay was used to measure 30 cytokines and chemokines. The 1:2, 1:10 and 1:200 diluted cell supernatant and serial dilution of the standard were dispensed into a 96 well plate at 50 ul/well. Then, the pre-mixed cocktail of antibody-coated magnetic beads was dispensed at 50 ul/well and incubated at room temperature for 2 h in a horizontal orbital microplate shaker at 800±500 rpm. The beads were washed using a magnetic device to prevent loss. The biotin-antibody was dispensed in 50 ul of each well and incubated at room temperature for 1 h in a shaker at 800±500 rpm. After washing, streptavidin-PE was added at 50 ul/well and incubated at room temperature for 30 min in a shaker under the same conditions. Finally, after washing, wash buffer (100 ul/well) was added to the plate and incubated in a shaker for 2 min. The Luminex™ 200 setting were set according to the manufacturer's protocol. The data was calculated with a standard five-parameter logistic nonlinear regression analysis of the data (xPonent software 4.2, USA). The levels of cytokine/chemokine are normalized to the live cell counts (1×10^5 cells/mL) and presented as concentrations per mL (pg/mL or ng/mL).

[1] = PBMC + LPS(5 ug/ml) + test article 0.001 uM, Mean
[2] = PBMC + LPS(5 ug/ml) + test article 0.001 uM, single replicates
[3] = PBMC + LPS(5 ug/ml) + test article 0.01 uM, Mean
[4] = PBMC + LPS(5 ug/ml) + test article 0.01 uM, single replicates
[5] = PBMC + LPS(5 ug/ml) + test article 0.1 uM, Mean
[6] = PBMC + LPS(5 ug/ml) + test article 0.1 uM, single replicates
[7] = PBMC + LPS(5 ug/ml) + test article 1 uM, Mean
[8] = PBMC + LPS(5 ug/ml) + test article 1 uM, single replicates
[9] = PBMC + LPS(5 ug/ml) + test article 10 uM, Mean
[10] = PBMC + LPS(5 ug/ml) + test article 10 uM, single replicates
[11] = PBMC + LPS(5 ug/ml) + test article 100 uM, Mean
[12] = PBMC + LPS(5 ug/ml) + test article 100 uM, single replicates
[13] = PBMC + test article 0.01 uM, no LPS, Mean
[14] = PBMC + test article 0.01 uM, no LPS, single replicates
[15] = PBMC + test article 0.1 uM, no LPS, Mean
[16] = PBMC + test article 0.1 uM, no LPS, single replicates
[17] = PBMC + test article 1 uM, no LPS, Mean
[18] = PBMC + test article 1 uM, no LPS, single replicates
[19] = PBMC + test article 10 uM, no LPS, Mean
[20] = PBMC + test article 10 uM, no LPS, single replicates
[21] = PBMC + test article 100 uM, no LPS, Mean
[22] = PBMC + test article 100 uM, no LPS, single replicates

**Q.** For `CC(C)C[C@H](NC(=O)CNC(=O)[C@H](CC(=O)O)NC(=O)[C@H](CCC(N)=O)NC(=O)CNC(=O)[C@@H]1C[C@@H](O)CN1)C(=O)N[C@@H](C)C(=O)NCC(=O)N1CCC[C@H]1C(=O)N[C@@H](CCCCN)C(=O)O` [YY-101] (H-[Hyp]GQDGLAGPK-OH; N-terminus and C-terminus assumed), which Concentration [1] is on record?
**A.** 7614.6 pg/mL

**Q.** What about the MFI [1] of the same molecule?
**A.** 1976.7

**Q.** What about the conc/live cell [1] of the same molecule?
**A.** 1188.6 pg/10^5

**Q.** And the Concentration [2]?
**A.** 7907.5 pg/mL and 7935.5 pg/mL and 7000.7 pg/mL

**Q.** What about the MFI [2] of the same molecule?
**A.** 2055.5 and 2063.0 and 1811.5

**Q.** And the conc/live cell [2]?
**A.** 1387.3 pg/10^5 and 1117.7 pg/10^5 and 1060.7 pg/10^5

**Q.** And the Concentration [3]?
**A.** 8390.1 pg/mL

**Q.** What about the MFI [3] of the same molecule?
**A.** 2184.3

**Q.** And the conc/live cell [3]?
**A.** 1361.7 pg/10^5

**Q.** What about the Concentration [4] of the same molecule?
**A.** 8405.7 pg/mL and 8552.3 pg/mL and 8212.4 pg/mL

**Q.** What about the MFI [4] of the same molecule?
**A.** 2188.5 and 2227.5 and 2137.0

**Q.** What about the conc/live cell [4] of the same molecule?
**A.** 1313.4 pg/10^5 and 1425.4 pg/10^5 and 1346.3 pg/10^5

**Q.** And the Concentration [5]?
**A.** 8511.2 pg/mL

**Q.** And the MFI [5]?
**A.** 2216.5

**Q.** What about the conc/live cell [5] of the same molecule?
**A.** 1463.1 pg/10^5

**Q.** And the Concentration [6]?
**A.** 8266.8 pg/mL and 8740.8 pg/mL and 8526.0 pg/mL

**Q.** What about the MFI [6] of the same molecule?
**A.** 2151.5 and 2277.5 and 2220.5

**Q.** And the conc/live cell [6]?
**A.** 1333.4 pg/10^5 and 1680.9 pg/10^5 and 1375.2 pg/10^5

**Q.** And the Concentration [7]?
**A.** 7838.4 pg/mL

**Q.** And the MFI [7]?
**A.** 2036.8

**Q.** What about the conc/live cell [7] of the same molecule?
**A.** 1203.9 pg/10^5

**Q.** And the Concentration [8]?
**A.** 8218.0 pg/mL and 7821.7 pg/mL and 7475.4 pg/mL

**Q.** What about the MFI [8] of the same molecule?
**A.** 2138.5 and 2032.5 and 1939.5

**Q.** And the conc/live cell [8]?
**A.** 1304.4 pg/10^5 and 1101.6 pg/10^5 and 1205.7 pg/10^5

**Q.** And the Concentration [9]?
**A.** 8659.2 pg/mL

**Q.** What about the MFI [9] of the same molecule?
**A.** 2255.8

**Q.** And the conc/live cell [9]?
**A.** 1311.5 pg/10^5

**Q.** And the Concentration [10]?
**A.** 8518.5 pg/mL and 8816.3 pg/mL and 8642.7 pg/mL

**Q.** And the MFI [10]?
**A.** 2218.5 and 2297.5 and 2251.5

**Q.** And the conc/live cell [10]?
**A.** 1419.7 pg/10^5 and 1377.5 pg/10^5 and 1137.2 pg/10^5

**Q.** And the Concentration [11]?
**A.** 12179.5 pg/mL

**Q.** And the MFI [11]?
**A.** 3163.2

**Q.** And the conc/live cell [11]?
**A.** 2105.8 pg/10^5

**Q.** What about the Concentration [12] of the same molecule?
**A.** 12944.3 pg/mL and 11783.1 pg/mL and 11811.0 pg/mL

**Q.** And the MFI [12]?
**A.** 3353.5 and 3064.5 and 3071.5

**Q.** And the conc/live cell [12]?
**A.** 2054.7 pg/10^5 and 1900.5 pg/10^5 and 2362.2 pg/10^5

**Q.** What about the Concentration [13] of the same molecule?
**A.** 5.5 pg/mL

**Q.** What about the MFI [13] of the same molecule?
**A.** 2.5

**Q.** What about the conc/live cell [13] of the same molecule?
**A.** 0.6 pg/10^5

**Q.** What about the Concentration [14] of the same molecule?
**A.** 5.5 pg/mL

**Q.** And the MFI [14]?
**A.** 0.5 and 4.5

**Q.** What about the conc/live cell [14] of the same molecule?
**A.** 0.0 pg/10^5 and 1.2 pg/10^5

**Q.** What about the MFI [15] of the same molecule?
**A.** 1.5

**Q.** And the conc/live cell [15]?
**A.** 0.0 pg/10^5

**Q.** What about the MFI [16] of the same molecule?
**A.** 1.5

**Q.** What about the conc/live cell [16] of the same molecule?
**A.** 0.0 pg/10^5

**Q.** What about the MFI [17] of the same molecule?
**A.** 2.0

**Q.** What about the conc/live cell [17] of the same molecule?
**A.** 0.0 pg/10^5

**Q.** What about the MFI [18] of the same molecule?
**A.** 3.5 and 0.5

**Q.** And the conc/live cell [18]?
**A.** 0.0 pg/10^5

**Q.** What about the Concentration [19] of the same molecule?
**A.** 122.9 pg/mL

**Q.** What about the MFI [19] of the same molecule?
**A.** 13.0

**Q.** And the conc/live cell [19]?
**A.** 9.6 pg/10^5

**Q.** What about the Concentration [20] of the same molecule?
**A.** 122.9 pg/mL

**Q.** What about the MFI [20] of the same molecule?
**A.** 23.5 and 2.5

**Q.** What about the conc/live cell [20] of the same molecule?
**A.** 19.2 pg/10^5 and 0.0 pg/10^5

**Q.** What about the Concentration [21] of the same molecule?
**A.** 159.6 pg/mL

**Q.** What about the MFI [21] of the same molecule?
**A.** 31.5

**Q.** And the conc/live cell [21]?
**A.** 24.7 pg/10^5

**Q.** What about the Concentration [22] of the same molecule?
**A.** 278.4 pg/mL and 40.7 pg/mL

**Q.** And the MFI [22]?
**A.** 53.5 and 9.5

**Q.** What about the conc/live cell [22] of the same molecule?
**A.** 43.5 pg/10^5 and 5.8 pg/10^5

**Q.** What about the “LPS-induced IL-I3 levels (in words)” value (at 100.iM, LPS 5 ug/mL 24 hrs) of the same molecule?
**A.** further increased

— patent US20230146455A1, “TREATMENT OF INFLAMMATORY DISEASES WITH PEPTIDES AND PHARMACEUTICAL COMPOSITIONS” (Yuyu Pharma, Inc., priority 2020, published 2023)
